ChEMBL document CHEMBL1128890, “Synthesis and antifungal activities of optically active isomers of SM-8668” (1995)
≈ marks a conversion by molar mass, not a printed value.

How the values were obtained:
Assay type in all cases: functional
Mus musculus [1] = assay: Effective dose against Aspergillus fumigatus MTU6001 strain after iv administration in murine
Aspergillus fumigatus = assay: Minimum inhibitory concentration required for in vitro antifungal activity against Aspergillus fumigatus MTU6001 strain
Mus musculus [2] = assay: Effective dose against Candida albicans KB-8 strain after iv administration in murine
Mus musculus [3] = assay: Effective dose against Candida albicans KB-8 strain after po administration in murine
Candida albicans = assay: Minimum inhibitory concentration required for in vitro antifungal activity against Candida albicans KB-8 strain
Mus musculus [4] = assay: Effective dose against Aspergillus fumigatus MTU6001 strain after po administration in murine

MIC (Aspergillus fumigatus) [µg/mL]	MIC (Candida albicans) [µg/mL]	SMILES	ED50 (Mus musculus [1]) [mg/kg]	ED50 (Mus musculus [2]) [mg/kg]	ED50 (Mus musculus [3]) [mg/kg]	ED50 (Mus musculus [4]) [mg/kg]
> 800	50 (≈ 151 µM)	C[C@@H]([C@@](O)(Cn1cncn1)c1ccc(F)cc1F)S(C)(=O)=O	> 25	> 25	> 100	> 125
12.5 (≈ 37.7 µM)	0.2 (≈ 0.604 µM)	CC(C(O)(Cn1cncn1)c1ccc(F)cc1F)S(C)(=O)=O (racemic)	–	–	0.38	18
6.25 (≈ 18.9 µM)	0.1 (≈ 0.302 µM)	C[C@H]([C@](O)(Cn1cncn1)c1ccc(F)cc1F)S(C)(=O)=O [GENACONAZOLE]	5.3	0.26	0.27	4.1
